PubChem BioAssay AID330 (DTP/NCI, 2004)
Several values for one entry are separate records, joined by “and”; a condition that tells them apart may be missing. Equal values may be shown once. Toxic doses and inconclusive results are not listed. The calls were made as follows: active = survival T/C of 150% or more; inactive = T/C below 125% in these data.

System: P388 leukemia ip, CD2F1 mice, survival T/C
Experiment: NCI In Vivo Anticancer Drug Screen. Data for tumor model P388 Leukemia (intraperitoneal) in CD2F1 (CDF1) mice
Details: endpoint: median survival time, higher = longer survival
Method in brief: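 Mice carrying the transplanted tumor received test compound or vehicle. Survival was recorded in each group, and the value is the treated-group measurement divided by that of the vehicle-treated control group.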

[1] = dose: 50.0 mg/kg/injection, schedule: Q01DX005 (ip), vehicle: saline with Tween-80
[2] = dose: 100.0 mg/kg/injection, schedule: Q01DX005 (ip), vehicle: saline with Tween-80
[3] = dose: 100.0 mg/kg/injection, schedule: Q04DX003 (ip), vehicle: saline with Tween-80
[4] = dose: 200.0 mg/kg/injection, schedule: Q04DX003 (ip), vehicle: saline with Tween-80
[5] = dose: 12.5 mg/kg/injection, schedule: Q01DX009 (ip), vehicle: saline with Tween-80
[6] = dose: 25.0 mg/kg/injection, schedule: Q01DX009 (ip), vehicle: saline with Tween-80
[7] = dose: 50.0 mg/kg/injection, schedule: Q01DX009 (ip), vehicle: saline
[8] = dose: 100.0 mg/kg/injection, schedule: Q01DX009 (ip), vehicle: saline
[9] = dose: 200.0 mg/kg/injection, schedule: Q01DX009 (ip), vehicle: saline
[10] = dose: 60.0 mg/kg/injection, schedule: Q01DX005 (ip), vehicle: saline with Tween-80
[11] = dose: 120.0 mg/kg/injection, schedule: Q01DX005 (ip), vehicle: saline with Tween-80
[12] = dose: 50.0 mg/kg/injection, schedule: Q01DX009 (ip), vehicle: saline with Tween-80
[13] = dose: 100.0 mg/kg/injection, schedule: Q01DX001 (ip), vehicle: Klucel (hydroxypropylcellulose) (HPC)
[14] = dose: 240.0 mg/kg/injection, schedule: Q01DX005 (ip), vehicle: saline with Tween-80

Measured: T/C

COc1cc(-c2ccc(O)cc2)c(OC)c(O)c1-c1ccc(O)cc1
inactive: dose: 0.15 mg/kg/injection, schedule: Q01DX009 (ip), vehicle: saline 90 % of control | dose: 0.3 mg/kg/injection, schedule: Q01DX009 (ip), vehicle: saline 90 % of control | dose: 0.6 mg/kg/injection, schedule: Q01DX009 (ip), vehicle: saline 107 % of control | dose: 1.2 mg/kg/injection, schedule: Q01DX009 (ip), vehicle: saline 89 % of control

CCCCC(CC)CN1CN(CC(CC)CCCC)CC(C)(N)C1 (stereo not drawn)
inactive: [1] 100 % of control | [2] 98 % of control

CCCCCCC(O)C(CCCCCC)[Se]C (stereo not drawn)
inactive: dose: 50.0 mg/kg/injection, schedule: Q04DX003 (ip), vehicle: saline with Tween-80 104 % of control | [3] 106 % of control and 115 % of control | [4] 100 % of control

O=C(/C=C/c1ccc(OCc2ccccc2)cc1)c1cccc(Cl)c1
inactive: dose: 6.25 mg/kg/injection, schedule: Q01DX009 (ip), vehicle: saline with Tween-80 95 % of control | [5] 95 % of control | [6] 93 % of control

CCCCCCCCCCCCCC(=O)Nc1ncc([N+](=O)[O-])s1
inactive: dose: 50.0 mg/kg/injection, schedule: Q01DX009 (ip), vehicle: Klucel (hydroxypropylcellulose) (HPC) 94 % of control | dose: 100.0 mg/kg/injection, schedule: Q01DX009 (ip), vehicle: Klucel (hydroxypropylcellulose) (HPC) 94 % of control | dose: 200.0 mg/kg/injection, schedule: Q01DX009 (ip), vehicle: Klucel (hydroxypropylcellulose) (HPC) 100 % of control

CCOC(=O)C1(O)CC2(CCC(OCc3ccccc3)CC2)C(=O)O1 (stereo not drawn)
inactive: [7] 102 % of control | [8] 100 % of control | [9] 98 % of control

Cc1cc(=O)oc2c1ccc1c(O)cccc12
inactive: [10] 106 % of control | [11] 100 % of control

COc1ccc2c(c1)C1CCN(C)CC1OC2=O (stereo not drawn)
inactive: [5] 92 % of control | [6] 98 % of control | [12] 100 % of control and 104 % of control

CC1CC(C)(C)N=C(Cc2ccccc2)O1 (stereo not drawn)
inactive: [12] 100 % of control | dose: 100.0 mg/kg/injection, schedule: Q01DX009 (ip), vehicle: saline with Tween-80 101 % of control | dose: 200.0 mg/kg/injection, schedule: Q01DX009 (ip), vehicle: saline with Tween-80 89 % of control

COC(=O)C1=C(C)NC(=S)NC1c1ccco1 (stereo not drawn)
inactive: [3] 95 % of control | [4] 95 % of control | dose: 400.0 mg/kg/injection, schedule: Q04DX003 (ip), vehicle: saline with Tween-80 100 % of control

Cc1cc(C)c2c(Nc3ccc4c(c3)OCO4)c(C(=O)O)cnc2c1
inactive: dose: 60.0 mg/kg/injection, schedule: Q04DX002 (ip), vehicle: Klucel + Tween-80 95 % of control | dose: 120.0 mg/kg/injection, schedule: Q04DX002 (ip), vehicle: Klucel + Tween-80 92 % of control | dose: 240.0 mg/kg/injection, schedule: Q04DX002 (ip), vehicle: Klucel + Tween-80 101 % of control

CC1=CC(C)(C2(C)C=C(C)NC(=O)N2)NC(=O)N1 (stereo not drawn)
inactive: dose: 25.0 mg/kg/injection, schedule: Q01DX001 (ip), vehicle: Klucel (hydroxypropylcellulose) (HPC) 99 % of control | dose: 50.0 mg/kg/injection, schedule: Q01DX001 (ip), vehicle: Klucel (hydroxypropylcellulose) (HPC) 98 % of control | [13] 99 % of control

Cc1ccc(-c2nnc(N)o2)cc1
inactive: [10] 100 % of control | [11] 100 % of control | [14] 99 % of control

COc1c(C)n(C)n(-c2ccccc2)c1=O
inactive: dose: 6.25 mg/kg/injection, schedule: Q01DX005 (ip), vehicle: saline 108 % of control | dose: 12.5 mg/kg/injection, schedule: Q01DX005 (ip), vehicle: saline 98 % of control | dose: 25.0 mg/kg/injection, schedule: Q01DX005 (ip), vehicle: saline 108 % of control | dose: 50.0 mg/kg/injection, schedule: Q01DX005 (ip), vehicle: saline 102 % of control | dose: 100.0 mg/kg/injection, schedule: Q01DX005 (ip), vehicle: saline 105 % of control | dose: 200.0 mg/kg/injection, schedule: Q01DX005 (ip), vehicle: saline 102 % of control

CN(C)/C(N)=N\c1ncccn1
inactive: dose: 12.5 mg/kg/injection, schedule: Q01DX009 (ip), vehicle: saline 94 % of control | dose: 25.0 mg/kg/injection, schedule: Q01DX009 (ip), vehicle: saline 91 % of control | [7] 91 % of control | [8] 93 % of control | [9] 90 % of control

O=[N+]([O-])c1ccc(-c2nc3ccc(F)cc3[nH]2)o1
inactive: [10] 101 % of control | [11] 97 % of control | [14] 104 % of control

CN(CCO)CNC(=O)C1=C(O)C2(O)C(=O)C3=C(O)c4c(O)cccc4C(C)(O)C3CC2C(N(C)C)C1=O (stereo not drawn)
inactive: dose: 50.0 mg/kg/injection, schedule: Q01DX005 (ip), vehicle: Klucel (hydroxypropylcellulose) (HPC) 105 % of control | dose: 100.0 mg/kg/injection, schedule: Q01DX005 (ip), vehicle: Klucel (hydroxypropylcellulose) (HPC) 103 % of control | dose: 200.0 mg/kg/injection, schedule: Q01DX005 (ip), vehicle: Klucel (hydroxypropylcellulose) (HPC) 100 % of control

COC(=O)CC1(C(=O)OC)Oc2ccc(Br)cc2C(=O)N1c1cccc(Cl)c1Cl (stereo not drawn)
inactive: [1] 100 % of control | [2] 91 % of control | dose: 200.0 mg/kg/injection, schedule: Q01DX005 (ip), vehicle: saline with Tween-80 100 % of control

O=[N+]([O-])C(c1ccccc1)C(c1ccccc1)[N+](=O)[O-] (stereo not drawn)
inactive: dose: 12.5 mg/kg/injection, schedule: Q01DX005 (ip), vehicle: saline with Tween-80 98 % of control | dose: 25.0 mg/kg/injection, schedule: Q01DX005 (ip), vehicle: saline with Tween-80 101 % of control | [1] 109 % of control and 112 % of control and 119 % of control | [2] 109 % of control and 110 % of control

CCOC(=O)Cn1cc([N+](=O)[O-])sc1=NC(=O)c1ccco1
inactive: [13] 90 % of control | dose: 200.0 mg/kg/injection, schedule: Q01DX001 (ip), vehicle: Klucel (hydroxypropylcellulose) (HPC) 98 % of control | dose: 400.0 mg/kg/injection, schedule: Q01DX001 (ip), vehicle: Klucel (hydroxypropylcellulose) (HPC) 97 % of control

CCc1nc(N)nc(N)c1-c1ccc(N(C)C)c(N=[N+]=[N-])c1
inactive: dose: 15.0 mg/kg/injection, schedule: Q01DX005 (ip), vehicle: Klucel (hydroxypropylcellulose) (HPC) 96 % of control | dose: 30.0 mg/kg/injection, schedule: Q01DX005 (ip), vehicle: Klucel (hydroxypropylcellulose) (HPC) 92 % of control | dose: 60.0 mg/kg/injection, schedule: Q01DX005 (ip), vehicle: Klucel (hydroxypropylcellulose) (HPC) 105 % of control and 113 % of control
